Legend:
Format in all cases: physicochemical
[1] = Evaluation of UV absorption performance (1): absorbance spectra in chloroform; settings: 100 μM; for Absorbance at absorption peak in wavelength region of 350 to 390 nm / Absorbance at peak end / Absorption wavelength at peak end / Molar extinction coefficient at peak (maximum molar extinction coefficient: εmax) / Wave length at absorption peak in wavelength region of 350 to 390 nm (maximum absorption wavelength: λmax): 10-mm quartz cell; for Absolute value of slope of absorption peak on long wavelength side in wavelength region of 350 to 390 nm: Equation 2
Method: Compounds 1 to 12 were diluted with 100 μM of chloroform, placed in a 10-mm quartz cell, and the absorbance spectra were measured using an ultraviolet-visible spectrophotometer (V-550, manufactured by JASCO Corporation)(FIGS. 1 to 12).
The absorption peak (maximum absorption wavelength: λmax) and absorbance in the wavelength range of 350 to 390 nm were read from the absorption spectra of Compounds 1 to 12, and the molar extinction coefficient of the peak (maximum molar extinction coefficient: εmax) was obtained by the following equation (able 1). Molar extinction coefficient:εmax(L/(mol·cm))=A:Absorbance/[c:Mol concentration(mol/L)×1:Cell optical length(cm)] [Equation 1]
In addition, from the absorption spectra of Compounds 1 to 12, assuming that an intersection of a long-wavelength side absorption spectrum in the absorption peak at 350 to 390 nm and a baseline (a line where the slope of the absorption spectrum at 380 to 500 nm is zero) is set as a […] (for example: FIG. 1), the absolute value of the slope of the absorption peak on the long-wavelength side in the wavelength region at 350 to 390 nm was obtained by the following equation: |Slope of absorption peak on long wavelength side in wavelength region of 350 to 390 nm|=|(Absorbance at peak end−Absorbance at absorption peak in wavelength region of 350 to 390 nm)/(Absorption wavelength at peak end−Wave length at absorption peak in wavelength region of 350 to 390 nm)| [Equation 2]

[2] = Maximum solubility in various monomers; settings: acrylonitrile as a vinyl-based monomer; same evaluation method
From the text: With the same evaluation method, 2 wt % of Compound 1, 5 wt % of Compound 2, 5 wt % of Compound 3, and 1 wt % of Compound 4 were each soluble in acrylonitrile as a vinyl-based monomer as well.

[3] = Maximum solubility in various monomers; settings: room temperature (20 to 30° C.), 4 hours
[4] = Evaluation of 5% weight reduction temperature (1) (TG/DTA); settings: temperature increasing rate 10° C./min, 25° C. to 550° C.
Method: (§1) Compounds 1 to 8 and 10 to 12 were measured using a differential thermogravimetric simultaneous measurement device (TG/DTA6200, manufactured by SII Corporation) at a temperature increasing rate of 10° C./min and within a measurement range of 25° C. to 550° C., and the temperature at which 5 wt % reduction as the weight change (TG) took place was read (Table 6).

[5] = Evaluation of UV absorption performance (2): absorbance spectra in chloroform; settings: 100 μM; for Absorbance at absoprtion peak in wavelength region of 350 to 390 nm / Absorbance at peak end / Absorption wavelength at peak end / Molar extinction coefficient at peak (maximum molar extinction coefficient: εmax) / Wave length at absorption peak in wavelength region of 350 to 390 nm (maximum absorption wavelength: λmax): 10-mm quartz cell; for Absolute value of slope of absorption peak on long wavelength side in wavelength region of 350 to 390 nm: Equation 4
Method: Compounds 11 to 28 were diluted with 100 μM of chloroform and placed in a 10-mm quartz cell, and the absorbance spectra were measured using an ultraviolet-visible spectrophotometer (V-550, manufactured by JASCO Corporation)(FIGS. 11,12,14 to 29).
The absorption peak (maximum absorption wavelength: max) and absorbance in the wavelength range of 350 to 390 nm were read from the absorption spectra of Compounds 11 to 28, and a molar extinction coefficient (maximum molar extinction coefficient: εmax) of the peak was obtained by the following formula (Table 7): Molar extinction coefficient:εmax(L/(mol·cm))=A:Absorbance/[c:Mol concentration(mol/L)×1:Cell optical length(cm)] [Equation 3]
In addition, from the absorption spectra of Compounds 11 to 28, assuming that an intersection of a long-wavelength side absorption spectrum in the absorption peak at 350 to 390 nm and a baseline (a line where the slope of the absorption spectrum at […] is zero) is set as a peak end (for example: FIG. 1), the absolute value of the slope of the absorption peak on the long-wavelength side in the wavelength region at 350 to 390 nm was obtained by the following equation (Table 8): |Slope of absorption peak on long wavelength side in wavelength region of 350 to 390n|=|(Absorbance at peak end−Absorbance at absorption peak in wavelength region of 350 to 390 nm)/(Absorption wavelength at peak end−Wave length at absorption peak in wavelength region of 350 to 390 nm)| [Equation 4]

[6] = Evaluation of 5% weight reduction temperature (2) (TG/DTA); settings: temperature increasing rate 10° C./min, 25° C. to 550° C.
Method: as §1, with “The compounds of the present invention” for “Compounds 1 to 8 and 10 to 12”, “w” for “wt”, “9).” for “6).”

Row | Structure (SMILES) | Absorbance at absorption peak in wavelength region of 350 to 390 nm [1] | Absorbance at peak end [1] | Absorption wavelength at peak end [1] [nm] | Molar extinction coefficient at peak (maximum molar extinction coefficient: εmax) [1] [L/mol/cm] | Wave length at absorption peak in wavelength region of 350 to 390 nm (maximum absorption wavelength: λmax) [1] [nm] | Concentration soluble in acrylonitrile [2] [wt %] | Maximum solubility ([3]; Dimethylacrylamide) [wt %] | Maximum solubility ([3]; Hexadiene) [wt %] | Maximum solubility ([3]; Methyl (meth)acrylate) [wt %] | Maximum solubility ([3]; Styrene) [wt %] | Maximum solubility ([3]; Vinyl acetate) [wt %] | 5% weight reduction temperature [4] [°C] | Absolute value of slope of absorption peak on long wavelength side in wavelength region of 350 to 390 nm [1] | Absorbance at absoprtion peak in wavelength region of 350 to 390 nm [5] | Absorbance at peak end [5] | Absorption wavelength at peak end [5] [nm] | Molar extinction coefficient at peak (maximum molar extinction coefficient: εmax) [5] [L/mol/cm] | Wave length at absorption peak in wavelength region of 350 to 390 nm (maximum absorption wavelength: λmax) [5] [nm] | Absolute value of slope of absorption peak on long wavelength side in wavelength region of 350 to 390 nm [5] | 5% weight reduction temperature [6] [°C]
1 | C=CC(=O)OCCCCCCSc1ccc2nn(-c3cc(C)cc(C(C)(C)C)c3O)nc2c1 [Compound 1] | 2.26 | 0.00766 | 422 | 22600 | 368 | 2 | 20 | 10 | 20 | 25 | 15 | – | – | – | – | – | – | – | – | –
2 | C=C(C)C(=O)OCCSc1ccc2nn(-c3cc(C)cc(C(C)(C)C)c3O)nc2c1 [Compound 2] | 2.25 | 0.00727 | 421 | 21400 | 365 | 5 | 15 | 3 | 20 | 25 | 15 | 285 | – | – | – | – | – | – | – | –
3 | C=C(C)C(=O)OCCCSc1ccc2nn(-c3cc(C)cc(C(C)(C)C)c3O)nc2c1 [Compound 3] | 2.18 | 0.00692 | 419 | 21600 | 367 | 5 | 11 | 5 | 20 | 25 | 12 | 292 | – | – | – | – | – | – | – | –
4 | C=C(C)C(=O)OCCCCCCSc1ccc2nn(-c3cc(C)cc(C(C)(C)C)c3O)nc2c1 [Compound 4] | 2.24 | 0.00762 | 420 | 22400 | 368 | 1 | – | – | 12 | 25 | – | – | – | – | – | – | – | – | – | –
5 | C/C=C/C(=O)OCCCCCCSc1ccc2nn(-c3cc(C)cc(C(C)(C)C)c3O)nc2c1 [Compound 7] | 2.19 | 0.00728 | 422 | 21900 | 368 | – | – | – | – | – | – | 304 | – | – | – | – | – | – | – | –
6 | C=CCSc1ccc2nn(-c3cc(C)cc(C(C)(C)C)c3O)nc2c1 [Compound 10, reference compound] | 1.76 | 0.00722 | 430 | 17600 | 375 | – | ≤9 | 1 | ≤10 | ≤20 | ≤10 | 252 | 0.032 | – | – | – | – | – | – | –
7 | C=C(C)C(=O)OCCc1ccc(O)c(-n2nc3ccccc3n2)c1 [Compound 11, reference compound] | 1.83 | 0.0069 | 388 | 18300 | 341 | – | 10 | 2 | 11 | 21 | 11 | 249 | 0.038 | 1.83 | 0.0069 | 388 | 18300 | 341 | 0.038 | –
8 | Cc1cc(-n2nc3ccc(Cl)cc3n2)c(O)c(C(C)(C)C)c1 [Compound 12, reference compound] | 1.53 | 0.00617 | 423 | 15300 | 353 | – | – | – | – | – | – | 230 | 0.022 | 1.76 | 0.00722 | 430 | 16300 | 353 | 0.032 | 230
9 | CCCCCCSc1ccc2nn(-c3cc(C)cc(C(C)(C)C)c3O)nc2c1 [Compound 29] | – | – | – | – | – | – | – | – | – | – | – | – | – | – | – | – | – | – | – | 277
10 | Cc1ccc(Sc2ccc3nn(-c4cc(C)cc(C(C)(C)C)c4O)nc3c2)cc1 [Compound 30] | – | – | – | – | – | – | – | – | – | – | – | – | – | – | – | – | – | – | – | 293
